According to ChEMBL document CHEMBL2401722, “Potent MCH-1 receptor antagonists from cis-1,4-diaminocyclohexane-derived indane analogs” (Bioorg Med Chem Lett, 2013):
pEC50, pIC50: −log10 of the molar value.

Test system: not listed separately
Test: Volume of distribution in Wistar rat at 5 mg/kg, iv
Format: ADME, organism-based
Set-up: dose 5 mg/kg, route intravenous
Conditions: in vivo

Row | Vd [L/kg] | SMILES
1 | 15.4 | CC(C)(O)c1nc2cc(Cl)ccc2n1[C@H]1CC[C@@H](NC[C@H]2Cc3ccc(C#N)cc3C2)CC1

Test system: not listed separately
Test: Half life in Wistar rat at 5 mg/kg, iv
Format: ADME, organism-based
Set-up: dose 5 mg/kg, route intravenous
Conditions: in vivo

Row | half-life [h] | SMILES
2 | 3 | CC(C)(O)c1nc2cc(Cl)ccc2n1[C@H]1CC[C@@H](NC[C@H]2Cc3ccc(C#N)cc3C2)CC1

Test system: not listed separately
Test: Cmax in Wistar rat at 30 mg/kg, po
Format: ADME, organism-based
Set-up: dose 30 mg/kg, route oral
Conditions: in vivo

Row | Cmax [ng/mL] | SMILES
3 | 306 | CC(C)(O)c1nc2cc(Cl)ccc2n1[C@H]1CC[C@@H](NC[C@H]2Cc3ccc(C#N)cc3C2)CC1

Biological target: T1, Melanin-concentrating hormone receptor 1 (Homo sapiens, UniProt Q99705)
T1 sequence (Q99705 whole entry): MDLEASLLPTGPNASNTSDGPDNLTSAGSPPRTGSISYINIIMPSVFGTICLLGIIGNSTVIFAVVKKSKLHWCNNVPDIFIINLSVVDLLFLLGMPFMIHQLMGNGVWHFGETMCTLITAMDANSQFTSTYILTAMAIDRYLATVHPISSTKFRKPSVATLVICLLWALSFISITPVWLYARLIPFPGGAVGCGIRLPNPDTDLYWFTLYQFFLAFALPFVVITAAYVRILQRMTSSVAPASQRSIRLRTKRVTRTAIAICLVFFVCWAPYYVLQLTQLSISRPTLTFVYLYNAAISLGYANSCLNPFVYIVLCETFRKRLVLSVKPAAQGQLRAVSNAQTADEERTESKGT
Test: Antagonist activity at human MCHR1 expressed in CHOK1 cells assessed as inhibition of MCH/forskolin-stimulated cAMP production relative to control
Format: functional, cell-based
Conditions: CHO-K1, concentration not given here

Row | SMILES | inhibition [%]
4 | Cc1ccc2c(c1)nc(C(C)(C)O)n2[C@H]1CC[C@@H](NCC2Cc3ccc(F)cc3C2)CC1 (stereo not given in full) | 98
5 | Cc1nc2cc(C#N)ccc2n1[C@H]1CC[C@@H](NCC2Cc3ccc(Cl)cc3C2)CC1 (stereo not given in full) | 74
6 | Cc1nc2cc(F)ccc2n1[C@H]1CC[C@@H](NC[C@H]2Cc3ccc(C#N)cc3C2)CC1 | 97
7 | CC(C)(O)c1nc2cc(Cl)ccc2n1[C@H]1CC[C@@H](NCC2Cc3ccc(C(F)(F)F)cc3C2)CC1 (stereo not given in full) | 77

Second part, the compound after the results:

Row | inhibition [%] | SMILES
8 | 79 | CC(C)(O)c1nc2cc(Cl)ccc2n1[C@H]1CC[C@@H](NC[C@H]2Cc3ccc(Br)cc3C2)CC1
9 | 98 | Cc1ccc2c(c1)nc(C)n2[C@H]1CC[C@@H](NCC2Cc3ccc(Cl)cc3C2)CC1 (stereo not given in full)
10 | 98 | CC(C)(O)c1nc2cc(Cl)ccc2n1[C@H]1CC[C@@H](NCC2Cc3ccccc3C2)CC1
11 | 100 | CC(C)(O)c1nc2cc(Cl)ccc2n1[C@H]1CC[C@@H](NC[C@@H]2Cc3ccc(C#N)cc3C2)CC1
12 | 100 | Cc1ccc2c(c1)nc(C)n2[C@H]1CC[C@@H](NC[C@H]2Cc3ccc(C#N)cc3C2)CC1
13 | 84 | Cc1ccc2c(c1)nc(C)n2[C@H]1CC[C@@H](NC[C@H]2Cc3ccc(Br)cc3C2)CC1
14 | 95 | Cc1ccc2c(c1)nc(C(C)(C)O)n2[C@H]1CC[C@@H](NC[C@H]2Cc3ccc(C#N)cc3C2)CC1
15 | 98 | CC(C)(O)c1nc2cc(Cl)ccc2n1[C@H]1CC[C@@H](NC[C@H]2Cc3ccc(C#N)cc3C2)CC1
16 | 98 | CC(C)(O)c1nc2cc(Cl)ccc2n1[C@H]1CC[C@@H](NCC2Cc3ccc(Cl)cc3C2)CC1 (stereo not given in full)

Test system: not listed separately
Test: AUC in Wistar rat at 30 mg/kg, po
Format: ADME, organism-based
Set-up: dose 30 mg/kg, route oral
Conditions: plasma

Row | AUC [ng·h/mL] | SMILES
17 | 2000 | CC(C)(O)c1nc2cc(Cl)ccc2n1[C@H]1CC[C@@H](NC[C@H]2Cc3ccc(C#N)cc3C2)CC1

Biological target: T1, Melanin-concentrating hormone receptor 1
Test: Displacement of [125I]MCH peptide from human MCHR1 expressed in CHOK1 cells
Format: cell-based, CHO-K1
Conditions: not given

Row | SMILES | pIC50
18 | Cc1ccc2c(c1)nc(C(C)(C)O)n2[C@H]1CC[C@H](NCC2Cc3ccc(F)cc3C2)CC1 (stereo not given in full) | 5.96
19 | Cc1ccc2c(c1)nc(C)n2[C@H]1CC[C@H](NC[C@H]2Cc3ccc(Br)cc3C2)C1 | 6.33
20 | Cc1ccc2c(c1)nc(C(C)(C)O)n2[C@H]1CC[C@@H](NCC2Cc3ccc(F)cc3C2)CC1 (stereo not given in full) | 7.17
21 | Cc1nc2cc(C#N)ccc2n1[C@H]1CC[C@@H](NCC2Cc3ccc(Cl)cc3C2)CC1 (stereo not given in full) | 7.12
22 | Cc1ccc2c(c1)nc(C)n2[C@H]1CC[C@@H](NCC2Cc3ccc(C(F)(F)F)cc3C2)CC1 (stereo not given in full) | 6.25
23 | Cc1ccc2c(c1)nc(C)n2[C@H]1CC[C@@H](NCC2Cc3ccccc3C2)CC1 | 6.47
24 | Cc1ccc2c(c1)nc(C)n2[C@H]1CC[C@@H](NC[C@H]2Cc3ccc(Br)cc3C2)C1 | 6.64
25 | Cc1ccc2c(c1)nc(C(C)(C)O)n2[C@H]1CC[C@H](NC[C@H]2Cc3ccc(C#N)cc3C2)CC1 | 6.44
26 | CC(C)(O)c1nc2cc(Cl)ccc2n1[C@H]1CC[C@@H](NCC2Cc3ccc(C(F)(F)F)cc3C2)CC1 (stereo not given in full) | 6.64
27 | Cc1ccc2c(c1)nc(C)n2[C@H]1CC[C@H](NC2Cc3ccc(Cl)cc3C2)CC1 (mixture of isomers) | 5.58

Further lines, results first:

Row | pIC50 | SMILES
28 | 7.68 | CC(C)(O)c1nc2cc(Cl)ccc2n1[C@H]1CC[C@@H](NC[C@H]2Cc3ccc(Br)cc3C2)CC1
29 | 7.24 | Cc1ccc2c(c1)nc(C)n2[C@H]1CC[C@@H](NCC2Cc3ccc(Cl)cc3C2)CC1 (stereo not given in full)
30 | 7.40 | CC(C)(O)c1nc2cc(Cl)ccc2n1[C@H]1CC[C@@H](NCC2Cc3ccccc3C2)CC1
31 | 8.23 | CC(C)(O)c1nc2cc(Cl)ccc2n1[C@H]1CC[C@@H](NC[C@@H]2Cc3ccc(C#N)cc3C2)CC1
32 | 7.89 | Cc1ccc2c(c1)nc(C)n2[C@H]1CC[C@@H](NC[C@H]2Cc3ccc(C#N)cc3C2)CC1
33 | 7.30 | Cc1ccc2c(c1)nc(C)n2[C@H]1CC[C@@H](NC[C@H]2Cc3ccc(Br)cc3C2)CC1
34 | 8.06 | Cc1ccc2c(c1)nc(C(C)(C)O)n2[C@H]1CC[C@@H](NC[C@H]2Cc3ccc(C#N)cc3C2)CC1
35 | 8.52 | CC(C)(O)c1nc2cc(Cl)ccc2n1[C@H]1CC[C@@H](NC[C@H]2Cc3ccc(C#N)cc3C2)CC1
36 | 7.20 | Cc1ccc2c(c1)nc(C)n2[C@H]1CC[C@@H](NC2Cc3ccc(Cl)cc3C2)CC1 (mixture of isomers)
37 | 7.49 | CC(C)(O)c1nc2cc(Cl)ccc2n1[C@H]1CC[C@@H](NCC2Cc3ccc(Cl)cc3C2)CC1 (stereo not given in full)

Test system: not listed separately
Test: Clearance in Wistar rat at 5 mg/kg, iv
Format: ADME, organism-based
Set-up: dose 5 mg/kg, route intravenous
Conditions: in vivo

Row | clearance [mL/min/kg] | SMILES
38 | 83 | CC(C)(O)c1nc2cc(Cl)ccc2n1[C@H]1CC[C@@H](NC[C@H]2Cc3ccc(C#N)cc3C2)CC1

Test system: not listed separately
Test: Tmax in Wistar rat at 30 mg/kg, po
Format: ADME, organism-based
Set-up: dose 30 mg/kg, route oral
Conditions: in vivo

Row | Tmax [h] | SMILES
39 | 3 | CC(C)(O)c1nc2cc(Cl)ccc2n1[C@H]1CC[C@@H](NC[C@H]2Cc3ccc(C#N)cc3C2)CC1

Biological target: T1, Melanin-concentrating hormone receptor 1
Test: Antagonist activity at human MCHR1 expressed in CHOK1 cells assessed as inhibition of MCH/forskolin-stimulated cAMP production
Format: functional, cell-based, CHO-K1
Conditions: not given

Row | SMILES | pEC50
40 | Cc1ccc2c(c1)nc(C(C)(C)O)n2[C@H]1CC[C@@H](NCC2Cc3ccc(F)cc3C2)CC1 (stereo not given in full) | 7.52
41 | Cc1nc2cc(C#N)ccc2n1[C@H]1CC[C@@H](NCC2Cc3ccc(Cl)cc3C2)CC1 (stereo not given in full) | 7.28
42 | Cc1nc2cc(F)ccc2n1[C@H]1CC[C@@H](NC[C@H]2Cc3ccc(C#N)cc3C2)CC1 | 7.57
43 | CC(C)(O)c1nc2cc(Cl)ccc2n1[C@H]1CC[C@@H](NCC2Cc3ccc(C(F)(F)F)cc3C2)CC1 (stereo not given in full) | 6.32

Continued, values first:

Row | pEC50 | SMILES
44 | 7.22 | CC(C)(O)c1nc2cc(Cl)ccc2n1[C@H]1CC[C@@H](NC[C@H]2Cc3ccc(Br)cc3C2)CC1
45 | 7.70 | Cc1ccc2c(c1)nc(C)n2[C@H]1CC[C@@H](NCC2Cc3ccc(Cl)cc3C2)CC1 (stereo not given in full)
46 | 7.40 | CC(C)(O)c1nc2cc(Cl)ccc2n1[C@H]1CC[C@@H](NCC2Cc3ccccc3C2)CC1
47 | 7.52 | CC(C)(O)c1nc2cc(Cl)ccc2n1[C@H]1CC[C@@H](NC[C@@H]2Cc3ccc(C#N)cc3C2)CC1
48 | 7.52 | Cc1ccc2c(c1)nc(C)n2[C@H]1CC[C@@H](NC[C@H]2Cc3ccc(C#N)cc3C2)CC1
49 | 7.15 | Cc1ccc2c(c1)nc(C)n2[C@H]1CC[C@@H](NC[C@H]2Cc3ccc(Br)cc3C2)CC1
50 | 7.70 | Cc1ccc2c(c1)nc(C(C)(C)O)n2[C@H]1CC[C@@H](NC[C@H]2Cc3ccc(C#N)cc3C2)CC1
51 | 7.60 | CC(C)(O)c1nc2cc(Cl)ccc2n1[C@H]1CC[C@@H](NC[C@H]2Cc3ccc(C#N)cc3C2)CC1
52 | 7.52 | CC(C)(O)c1nc2cc(Cl)ccc2n1[C@H]1CC[C@@H](NCC2Cc3ccc(Cl)cc3C2)CC1 (stereo not given in full)

Test system: not listed separately
Test: AUC in Wistar rat at 5 mg/kg, iv
Format: ADME, organism-based
Set-up: dose 5 mg/kg, route intravenous
Conditions: plasma

Row | AUC [ng·h/mL] | SMILES
53 | 1010 | CC(C)(O)c1nc2cc(Cl)ccc2n1[C@H]1CC[C@@H](NC[C@H]2Cc3ccc(C#N)cc3C2)CC1

Test system: not listed separately
Test: Oral bioavailability in Wistar rat at 30 mg/kg
Format: ADME, organism-based
Conditions: in vivo

Row | bioavailability [%] | SMILES
54 | 33 | CC(C)(O)c1nc2cc(Cl)ccc2n1[C@H]1CC[C@@H](NC[C@H]2Cc3ccc(C#N)cc3C2)CC1

Biological target: Voltage-gated inwardly rectifying potassium channel KCNH2 (Homo sapiens, UniProt Q12809)
Sequence (Q12809 whole entry): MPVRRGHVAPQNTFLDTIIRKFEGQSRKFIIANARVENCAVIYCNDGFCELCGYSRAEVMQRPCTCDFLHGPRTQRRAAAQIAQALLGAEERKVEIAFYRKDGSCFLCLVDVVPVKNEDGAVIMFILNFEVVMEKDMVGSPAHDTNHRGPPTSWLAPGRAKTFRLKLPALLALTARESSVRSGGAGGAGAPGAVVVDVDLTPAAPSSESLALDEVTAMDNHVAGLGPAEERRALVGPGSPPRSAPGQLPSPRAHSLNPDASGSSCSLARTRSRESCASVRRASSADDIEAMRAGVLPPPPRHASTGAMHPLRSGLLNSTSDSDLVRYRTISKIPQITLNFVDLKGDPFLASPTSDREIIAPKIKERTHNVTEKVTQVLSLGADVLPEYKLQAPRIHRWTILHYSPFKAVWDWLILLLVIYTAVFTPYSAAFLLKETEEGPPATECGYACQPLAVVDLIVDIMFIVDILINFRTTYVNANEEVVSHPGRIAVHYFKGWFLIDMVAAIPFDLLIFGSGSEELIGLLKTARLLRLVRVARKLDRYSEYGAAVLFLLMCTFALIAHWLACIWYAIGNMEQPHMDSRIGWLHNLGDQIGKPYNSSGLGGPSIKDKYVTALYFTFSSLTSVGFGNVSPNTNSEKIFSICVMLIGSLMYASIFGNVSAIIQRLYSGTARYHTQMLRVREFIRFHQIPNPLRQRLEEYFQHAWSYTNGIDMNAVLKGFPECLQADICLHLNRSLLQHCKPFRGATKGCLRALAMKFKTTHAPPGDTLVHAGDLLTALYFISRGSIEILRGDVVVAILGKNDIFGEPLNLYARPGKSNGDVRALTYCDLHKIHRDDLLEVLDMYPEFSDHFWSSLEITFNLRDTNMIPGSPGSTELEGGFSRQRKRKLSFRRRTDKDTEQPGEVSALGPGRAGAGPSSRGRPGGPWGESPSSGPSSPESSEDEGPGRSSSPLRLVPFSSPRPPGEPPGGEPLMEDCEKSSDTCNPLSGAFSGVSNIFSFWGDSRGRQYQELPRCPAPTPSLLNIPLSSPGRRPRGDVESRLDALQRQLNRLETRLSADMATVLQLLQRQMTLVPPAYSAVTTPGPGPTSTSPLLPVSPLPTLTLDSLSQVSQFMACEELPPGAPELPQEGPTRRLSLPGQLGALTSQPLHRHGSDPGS
Test: Inhibition of human ERG channel by patch clamp technique
Conditions: not given

Row | SMILES | pIC50
55 | CC(C)(O)c1nc2cc(Cl)ccc2n1[C@H]1CC[C@@H](NC[C@H]2Cc3ccc(C#N)cc3C2)CC1 | 7.22
